In brackets after ≈: the same amount, converted by molar mass. Where two headings read alike, the source gives them in different places. Each block holds one compound with its values, some of them ahead of it.
Columns and labels:
[1] = Pharmacokinetic evaluation in beagle dogs; format: in vivo; settings: plasma, 1 mg/kg
Method: A test was conducted to confirm whether the pharmacokinetic profiles of enavogliflozin/proline co-crystals were improved in beagle dogs. Each of the crystalline form A of enavogliflozin and the proline co-crystal was orally administered at a dose of 1 mg/kg to male beagle dogs by setting the crystalline form A of enavogliflozin as a control and the proline co-crystal as a comparative group, and blood collection was conducted before administration (0 hour), and for 0.083, 0.25, 0.5, 0.75, 1, 1.5, 2, 4, 6, 8, 12, and 24 hours (a total of 13 times). Blood drug concentrations were analyzed by LC-MS/MS using plasma separated from the collected samples, and pharmacokinetic parameters such as the maximum observed plasma concentration (Cmax), an area under the plasma concentration-time curve (AUClast and AUCinf), a time-to-maximum observed plasma concentration (Tmax), and a half-life (T1/2) were calculated and interpreted using the WinNonlin 5.0.1 program.

[2] = Stress stability evaluation, 60° C., 4 weeks, HPLC; format: physicochemical
[3] = Solubility in artificial intestinal fluid (FaSSIF); format: physicochemical; settings: thermodynamic from solid
[4] = Solubility in artificial gastric fluid (FaSSGF); format: physicochemical; settings: fassgf or other biorelevant, thermodynamic from solid
[5] = crystalline form of Patent Document 2; cited from earlier work

AUC(0-inf) ([1]; male, beagle, dog, po): 4640 ng·h/mL | AUC(0-t) ([1]; male, beagle, dog, po): 4340 ng·h/mL | half-life ([1]; male, beagle, dog, po): 5.32 h | Cmax ([1]; male, beagle, dog, po, read-out: Cmax): 482 ng/mL | Tmax ([1]; male, beagle, dog, po, read-out: Tmax): 4 h | Purity (HPLC) in stress stability evaluation ([2]; 2 weeks, listed as Crystalline form of enavogliflozin): 98.8% | Purity (HPLC) in stress stability evaluation ([2]; 4 weeks, listed as Crystalline form of enavogliflozin): 99.1% | Purity (HPLC) in stress stability evaluation ([2]; Initial, listed as Crystalline form of enavogliflozin): 99.1% | solubility at 30 min ([3]; 30 minutes): 690 µg/mL (≈ 1540 µM) | solubility at 1 h ([3]; 1 hour): 940 µg/mL (≈ 2100 µM) | solubility at 2 h ([3]; 2 hours): 1000 µg/mL (≈ 2240 µM) | solubility at 4 h ([3]; 4 hours): 920 µg/mL (≈ 2060 µM) | solubility at 0 h ([3]; Initial): 10000 µg/mL (≈ 22400 µM) | solubility at 30 min ([4]; 30 minutes): 310 µg/mL (≈ 694 µM) | solubility at 1 h ([4]; 1 hour): 340 µg/mL (≈ 761 µM) | solubility at 2 h ([4]; 2 hours): 350 µg/mL (≈ 783 µM) | solubility at 4 h ([4]; 4 hours): 350 µg/mL (≈ 783 µM)
Structure (SMILES): OC[C@H]1O[C@@H](c2cc(Cc3ccc(C4CC4)cc3)c(Cl)c3c2CCO3)[C@H](O)[C@@H](O)[C@@H]1O [Crystalline form A of enavogliflozin, enavogliflozin]

AUCinf ([1]; male beagle dogs, oral): 5341.58 ng·h/mL | AUClast ([1]; male beagle dogs, oral): 4428.20 ng·h/mL | Cmax ([1]; male beagle dogs, oral): 482.60 ng/mL | T1/2 ([1]; male beagle dogs, oral): 6.10 h | Tmax ([1]; male beagle dogs, oral): 5.20 h | Purity (HPLC) in stress stability evaluation ([2]; 2 weeks): 99.9% | Purity (HPLC) in stress stability evaluation ([2]; 4 weeks): 99.8% | Purity (HPLC) in stress stability evaluation ([2]; Initial): 99.9%
Structure (SMILES): OC[C@H]1O[C@@H](c2cc(Cc3ccc(C4CC4)cc3)c(Cl)c3c2CCO3)[C@H](O)[C@@H](O)[C@@H]1O [Enavogliflozin/proline co-crystal]
Thermal stability compared with crystalline form of enavogliflozin ([2]; 4 weeks): equivalent to that of the crystalline form of enavogliflozin

Structure (SMILES): OC[C@H]1O[C@@H](c2cc(Cc3ccc(C4CC4)cc3)c(Cl)c3c2CCO3)[C@H](O)[C@@H](O)[C@@H]1O [enavogliflozin]
Solubility (water solubility) [5]: 250 µg/mL (≈ 559 µM)

Source: US20260022112A1, “NOVEL CO-CRYSTAL OF ENAVOGLIFLOZIN” (DAEWOONG PHARMACEUTICAL CO., LTD., priority 2022, published 2026)
